Reference: patent publication US4788063A, “Drug delivery system” (priority 1984, dated 1988)

How the values were obtained:
[1] = system: Whole blood cholinesterase; experiment: whole blood cholinesterase after dermal application or intramuscular injection in pigs; assay type: in vivo; conditions: intramuscular injection, pigs (FIG. 1)
Procedure: (§1) Laboratory animal species used throughout this study consisted of albino guinea pigs of either sex of a local strain, (Dunkin-Hadley origin), weighing between 300-400 g, and female pigs of the large White and Lundrace strain, 8-12 weeks of age, weighing 8-14 kg.
(§2) At 30 minutes prior to dermal application of test solutions, the hair at the test sites was closely clipped. Only animals in which the skin at the test sites appeared grossly normal and was free of bites, scratches or bruises, were selected for the study.
(§3) Treatment solutions for dermal application were freshly prepared and applied to a pre-determined area of a commercially available pad, (micropad dressing 3M No. 1610, U.S. Pat. No. 3,285,245) which in turn was secured to dorsal test-sites by an adhesive bandage, serving at the same time as an occlusive dressing. […] Intervals between bleedings were 2 hours in guinea pigs, and 30 minutes in pigs.
(§4) Cholinesterase Determinations: Whole blood cholinesterase activity was determined by the method of Ellman [G.L. Ellman et al, Biochem. Pharmacol. 7, 83 (1961)], or by that described by Johnson and Russell [C.D. Johnson and R. L. Russell, Anal Biochem 64, 229 (1975)]. Data obtained in experimental animals (guinea pigs and pigs) show a remarkable prolonging of the duration of action of the dermally applied drug when compared with systemic administration.

[2] = system: Whole blood cholinesterase; experiment: whole blood cholinesterase after dermal application or injection in guinea pigs; assay type: in vivo; conditions: injection, guinea pigs (FIG. 2)
Procedure: as §1, §2, §3, §4

memory disorders = conditions: SDAT patients, intravenous infusion at a rate of 3.4-14 μg/kg. hr; cited from earlier work

CNC(=O)Oc1ccc2c(c1)[C@]1(C)CCN(C)[C@@H]1N2C [physostigmine]
duration of the effect [1]: 2 to 3 h | duration of the effect [2]: 2 to 3 h | effect on memory disorders (memory disorders): improvement in memory disorders
